Source: patent US20100056596A1, “RESISTANCE-REPELLENT RETROVIRAL PROTEASE INHIBITORS” (Sequoia Pharmaceuticals, priority 2004, published 2010)
pIC50, pKi: −log10 of the molar value. Read-outs that look alike come from different tables or passages of the source.

How the values were obtained:
[1] = biological target: HIV-1 protease Mutant 9 (Human immunodeficiency virus type 1, UniProt P04585); experiment: Ki against HIV-1 protease Mutant 9; type: biochemical; settings: Mutant 9
[2] = test system: HIV-1 isolates, Mutant 9; experiment: In vitro drug sensitivity of HIV-1 laboratory isolates, Mutant 9; type: cell-based
Protocol: (§1) In Vitro Drug Sensitivity of HIV-1 Laboratory Isolates to PIs
(§2) The sensitivities of HIV-1 isolates against compounds of the invention were determined as previously described with minor modifications (Shiraska et al., Proc. Natl. Acad. Sci. USA, 92, 2398-2402 (1995)).

[3] = biological target: HIV-1 protease Mutant 8 (Human immunodeficiency virus type 1, UniProt P04585); experiment: Ki against HIV-1 protease Mutant 8; type: biochemical; settings: Mutant 8
[4] = test system: HIV-1 isolates, Mutant 8; experiment: In vitro drug sensitivity of HIV-1 laboratory isolates, Mutant 8; type: cell-based
Protocol: as §1, §2

[5] = test system: HIV-1 isolates, WT; experiment: In vitro drug sensitivity of HIV-1 laboratory isolates, WT; type: cell-based
Protocol: as §1, §2

[6] = biological target: T1, wild type HIV-1 protease (Human immunodeficiency virus type 1 group M subtype B, UniProt P04585); experiment: Ki against wild type (WT) HIV-1 protease; type: biochemical; settings: WT
T1 construct: over 45 of the 99 amino acids of the HIV protease monomer

[7] = Human immunodeficiency virus 1, read-out: IC50 Mutant 9
[8] = Human immunodeficiency virus 1, read-out: IC50 Mutant 8
[9] = Mutant 9, read-out: IC50 Mutant 9
[10] = Mutant 8, read-out: IC50 Mutant 8

SMILES	pKi [1]	pIC50 [2, 7]	pKi [3]	pIC50 [4, 8]	pIC50 ([5]; Human immunodeficiency virus 1)	pKi [6]	pIC50 [2, 9]	pIC50 [4, 10]	pIC50 ([5]; WT)
CC(C)CN(C[C@@H](O)[C@H](Cc1ccccc1)NC(=O)OC1CO[C@H]2OCC[C@@H]12)S(=O)(=O)c1ccc2c(c1)CCO2 (some centres unmarked)	8.82	6.80	> 9.52	7.89	9.00	> 10.00			
CC(C)CN(C[C@@H](O)[C@H](Cc1ccccc1)NC(=O)OC1CO[C@H]2OCC[C@@H]12)S(=O)(=O)c1ccc2c(c1)C(C)CO2 (some centres unmarked)	8.12	6.05		7.25	8.82	> 10.00			
CC(C)CN(C[C@@H](O)[C@H](Cc1ccccc1)NC(=O)OC1CO[C@H]2OCC[C@@H]12)S(=O)(=O)c1ccc2c(c1)CC(CO)O2 (some centres unmarked)	8.05	6.30	9.42	7.33	8.27	> 10.00			
CC(C)CN(C[C@@H](O)[C@H](Cc1ccccc1)NC(=O)OC1COC2OCCC12)S(=O)(=O)c1ccc2c(c1)C(=O)CCO2 (some centres unmarked)	8.31	6.20	9.38	7.38	8.46	> 10.00			
CC(C)CN(CC(O)C(Cc1ccccc1)NC(=O)OC1COC2OCCC12)S(=O)(=O)c1ccc2occc2c1 (centres unmarked) [Compound 101, {3-[(Benzofuran-5-sulfonyl)-isobutyl-amino]-1-benzyl-2-hydroxy-propyl}-carbamic acid hexahydro-furo[2,3-b]furan-3-yl ester]	9.30	6.92	> 9.52	7.80	8.80	> 10.00			
Cc1cc2cc(S(=O)(=O)N(CC(C)C)CC(O)C(Cc3ccccc3)NC(=O)OC3COC4OCCC34)ccc2o1 (centres unmarked) [Compound 102]	9.02	< 6.40	> 9.52	7.05	8.43	> 10.00			
Cc1coc2ccc(S(=O)(=O)N(CC(C)C)CC(O)C(Cc3ccccc3)NC(=O)OC3COC4OCCC34)cc12 (centres unmarked) [Compound 103]	9.32	6.52	> 9.52	7.46	8.43	> 10.00			
CC(C)CN(C[C@@H](O)[C@H](Cc1ccccc1)NC(=O)OC1COC2OCCC12)S(=O)(=O)c1ccc2oc(CBr)cc2c1 (some centres unmarked) [Compound 104]	9.39		> 9.52			> 10.00	6.64	7.39	8.10
CC(C)CN(CC(O)C(Cc1ccccc1)NC(=O)OC1COC2OCCC12)S(=O)(=O)c1ccc2oc(CN)cc2c1 (centres unmarked) [Compound 105]	8.72	6.66	> 9.52	7.52	8.15	> 10.00			
CC(=O)NCc1coc2ccc(S(=O)(=O)N(CC(C)C)C[C@@H](O)[C@H](Cc3ccccc3)NC(=O)OC3COC4OCCC34)cc12 (some centres unmarked) [Compound 107]	9.59		> 9.52			> 10.00	7.38	7.55	7.82
CC(C)CN(C[C@@H](O)[C@H](Cc1ccccc1)NC(=O)OC1COC2OCCC12)S(=O)(=O)c1ccc2occ(CN3CCOCC3)c2c1 (some centres unmarked) [Compound 108]	8.82		> 9.52			> 10.00	6.38	7.42	8.82
CC(C)CN(C[C@@H](O)[C@H](Cc1ccccc1)NC(=O)OC1COC2OCCC12)S(=O)(=O)c1ccc2occ(CN3CCCCC3)c2c1 (some centres unmarked) [Compound 109]	8.55		> 9.52			> 10.00	< 6.40	7.52	8.70
CC(C)CN(C[C@@H](O)[C@H](Cc1ccccc1)NC(=O)OC1COC2OCCC12)S(=O)(=O)c1ccc2occ(CNCC(=O)OC(C)(C)C)c2c1 (some centres unmarked) [Compound 110]	9.49		> 9.52			> 10.00	7.21	7.48	8.47
CCCC[S+]([O-])Cc1coc2ccc(S(=O)(=O)N(CC(C)C)C[C@@H](O)[C@H](Cc3ccccc3)NC(=O)OC3COC4OCCC34)cc12 (some centres unmarked) [Compound 111]	9.80	7.31	> 9.52	7.62	8.10	> 10.00			
CCOC(=O)NCc1coc2ccc(S(=O)(=O)N(CC(C)C)C[C@@H](O)[C@H](Cc3ccccc3)NC(=O)OC3COC4OCCC34)cc12 (some centres unmarked) [Compound 112]	> 10.00		> 9.52			> 10.00	7.54	7.96	8.74
CCC(=O)NCc1coc2ccc(S(=O)(=O)N(CC(C)C)C[C@@H](O)[C@H](Cc3ccccc3)NC(=O)OC3COC4OCCC34)cc12 (some centres unmarked) [Compound 113]	> 10.00		> 9.52			> 10.00	7.30	7.70	8.15
CC(C)CN(CC(O)C(Cc1ccccc1)NC(=O)OC1COC2OCCC12)S(=O)(=O)c1ccc2occ(CNC(=O)c3ccccc3)c2c1 (centres unmarked) [Compound 114, (3-{[3-(Benzoylamino-methyl)-benzofuran-5-sulfonyl]-isobutyl-amino}-1-benzyl-2-hydroxy-propyl)-carbamic acid hexahydro-furo[2,3-b]furan-3-yl ester]	> 10.00	7.52	> 9.52	7.64	8.40	10.00			
CC(C)CN(CC(O)C(Cc1ccccc1)NC(=O)OC1COC2OCCC12)S(=O)(=O)c1ccc2occ(CNS(=O)(=O)C(C)C)c2c1 (centres unmarked) [Compound 115]	9.57	7.19	> 9.52	7.74	8.22	> 10.00			
CC(C)CN(C[C@@H](O)[C@H](Cc1ccccc1)NC(=O)OC1COC2OCCC12)S(=O)(=O)c1ccc2occ(CNC(=O)CNC(=O)OCc3ccccc3)c2c1 (some centres unmarked) [Compound 116]	9.39		> 9.52			> 10.00	7.24	7.30	7.82
CC(C)CN(C[C@@H](O)[C@H](Cc1ccccc1)NC(=O)OC1COC2OCCC12)S(=O)(=O)c1ccc2occ(CNCCc3ccccn3)c2c1 (some centres unmarked) [Compound 117]	> 10.00		> 9.52			> 10.00	7.31	7.57	8.15
CC(C)CN(C[C@@H](O)[C@H](Cc1ccccc1)NC(=O)OC1COC2OCCC12)S(=O)(=O)c1ccc2occ(CNC(=O)c3cccnc3)c2c1 (some centres unmarked) [Compound 118]	9.92		> 9.52			> 10.00	7.41	7.46	7.52
CC(C)CN(C[C@@H](O)[C@H](Cc1ccccc1)NC(=O)OC1COC2OCCC12)S(=O)(=O)c1ccc2occ(CNC(=O)CSCc3ccccc3)c2c1 (some centres unmarked) [Compound 119]	9.02		> 9.52			9.92	6.77	7.38	8.30
CC(C)CN(CC(O)C(Cc1ccccc1)NC(=O)OC1COC2OCCC12)S(=O)(=O)c1ccc2occ(CNC(=O)C[S+]([O-])Cc3ccccc3)c2c1 (centres unmarked) [Compound 120]	9.66	6.82	> 9.52	7.51	7.70	> 10.00			
CCOC(=O)NCc1cc2cc(S(=O)(=O)N(CC(C)C)CC(O)C(Cc3ccccc3)NC(=O)OC3COC4OCCC34)ccc2o1 (centres unmarked) [Compound 121]	8.80	< 6.40	> 9.52	7.68	8.10	> 10.00			
